# Results reported in patent US4963570A, “1-(acetylaminophenyl)-2-aminopropanone derivatives and pharmaceutical compositions thereof” (Laboratoire L. Lafon, priority 1983, dated 1990).
# “Also recorded” adds a separate entry of the source. Structures can show the parent of a compound that is named as a salt.
# How the values were obtained:
# mice [1] = experiment: overall behavior and reactivities in mice; type: in vivo, mouse; details: mice, i.p.; dose not stated
# Method: (§1) Groups of three animals are observed before and then 0.25 hour, 0.50 hour, 1 hour, 2 hours, 3 hours and 24 hours after the administration of CRL 41 224.
# rats [2] = experiment: overall behavior and reactivities in rats; type: in vivo, rat; details: i.p., dose not stated, hydrochloride
# Method: as §1
# mice [3] = experiment: interaction with apomorphine in mice; type: in vivo, mouse; details: i.p.; dose not stated
# Method: Groups of 6 mice receive CRL 41 224 0.5 hour before the subcutaneous injection of 1 or 16 mg/kg of apomorphine.
# rats [4] = experiment: interaction with apomorphine in rats; type: in vivo, rat; details: i.p., dose not stated
# Method: CRL 41 224 is administered to groups of 6 rats 0.5 hour before the subcutaneous injection of 0.5 mg/kg of apomorphine.
# rats [5] = experiment: interaction with amphetamine; type: in vivo, rat; details: rats, i.p.; dose not stated
# Method: Amphetamine (2 mg/kg) is injected intraperitoneally into groups of 6 rats 30 minutes after the administration of CRL 41 224.
# mice [6] = experiment: interaction with reserpine; type: in vivo, mouse; details: i.p.; dose not stated
# Method: Four hours after the intraperitoneal injection of 2.5 mg/kg of reserpine, groups of 6 mice receive CRL 41 224.
# mice [7] = experiment: interaction with oxotremorine; type: in vivo, mouse; details: i.p.; dose not stated
# Method: CRL 41 224 is administered to groups of 6 mice 0.5 hour before the intraperitoneal injection of 0.5 mg/kg of oxotremorine.
# mice [8] = experiment: four plate test, traction and electric shock; type: in vivo, mouse; details: i.p.; dose not stated
# Method: The test is performed on groups of 10 mice 30 minutes after the administration of CRL 41 224.
# mice [9] = experiment: action on the spontaneous motility (actimeter); type: in vivo, mouse; details: mice, i.p.; dose not stated
# Method: 0.5 hour after they have received CRL 41 224, the mice (6 per dose, 12 control animals) are placed in an actimeter, where their motility is recorded for 30 minutes.
# mice [10] = experiment: motility reduced by habituation to the enclosure; type: in vivo, mouse; details: i.p., dose not stated
# Method: After they have stayed in the actimeters for 18 hours, the mice (6 per dose, 12 control animals) receive CRL 41 224. They are immediately returned to their respective enclosures and, half an hour later, their motility is recorded for 30 minutes.
# mice [11] = experiment: motility reduced by hypoxic aggression; type: in vivo, mouse; details: i.p., dose not stated
# Method: Half an hour after they have received CRL 41 224, the mice (10 per dose, 20 control animals) are subjected to acute hypobaric anoxia [pressure reduction of 600 mm Hg (i.e. about 8×10^4 Pa) in 90 seconds; release of vacuum in 45 seconds] and are then placed in an actimeter, where their motility is recorded for 10 minutes.
# mice [12] = experiment: interaction with barbital; type: in vivo, mouse; details: i.p.; dose not stated
# Method: Half an hour after the administration of CRL 41 224, groups of 10 mice receive an intraperitoneal injection of barbital (220 mg/kg).
# mice [13] = experiment: action on the behavioral despair; type: in vivo, mouse; details: i.p., dose not stated
# Description: Half an hour after they have received CRL 41 224, groups of 6 mice are placed in a beaker filled with water to a height of 6 cm. The total period of immobility between the 2nd and 6th minutes following immersion is noted.
# man = experiment: clinical trials; type: in vivo, human; details: man, tablets or gelatine capsules 5 to 75 mg, 1 to 3 per day
# male mice [14] = experiment: influence of catecholamines on hyperactivity in mice; type: in vivo, mouse
# Method: A further series of assays was carried out on mice according to the teaching of S. L. HANDLEY et al. "Influences of catecholamines on dexamphetamine, induced changes in locomotor activity", Psychopharmacology 58, 283-288 (1978), in order to observe a potential influence of dopamine or moradrenaline on the hyperactivity induced by CRL 41 152.
# After a habituation period of 1.5 h to the actimeters, male mice (grouped into batches of 10 animals each and a control batch of 20 animals) were administered (under slight anesthesia with ether) per intraventriculocerebral injection (i.e. I.V.C. route) with (i) either 10 μg of noradrenaline, or 10 μg of dopamine or 10 μl (0.5 μl/second) of saline solution, then (ii) 5 minutes later, with CRL 41 152 (in solution in distilled water) per I.P. route in a volume of 20 ml/kg, immediately before replacing the mice in the actimeters vherein their motility was recorded for 1 hour by measuring the number of crossed rays per period of 5 minutes).
# Batches receiving CRL 41 152 per I.P. route with noradreanaline or dopamine per I.V.C. route were compared with (i) the control batch receiving the saline solution per I.V.C. route then distilled water per I.P. route, and (ii) batches receiving only noradrenaline, dopamine (per I.V.C. route) or CRL 41 152 (per I.P. route).
# male mice [15] = experiment: interaction with proadifen: motility; type: in vivo, mouse
# Method: (§2) Two series of experiments were carried out. In the first one, male mice (12 per dose, 12 control animals) were administered per I.P. route (i) with proadifen (75 mg/kg) at T-3 h, then (ii) with CRL 41 152 at T-0.5 h. At T=0 the mice were placed in actimeters, where their motility was recoded for 0.5 h. In the second one male mice (12 per dose, 12 control animals) were administered with proadifen and CRL 41 152 as indicated hereinabove, then subcutaneously with apomorphine (16 mg/kg) at T=0 in order to appreciate the potential variation of the hypothermia induced by apomorphine.
# (§3) In these two series CRL 41 152, in solution in distilled water, was administered per I.P. route to male mice in a volume of 20 ml/kg.
# male mice [16] = experiment: interaction with proadifen: hypothermia induced by apomorphine; type: in vivo, mouse
# Method: as §2, §3
# [17] = test system: White New Zealand gravid female rabbits; experiment: teratogenic study; type: in vivo, rabbit
# CNS = experiment: overall neuropsychopharmacological (CNS) profile; type: in vivo, mouse; rat; details: i.p., mice and rats; dose not stated; hydrochloride
# Method: The neuropsychopharmacological study of CRL 41 219 was carried out as indicated above for CRL 41 224.
# The neuropsychopharmacological study of CRL 41 220 was carried out in accordance with the procedures given above for CRL 41 224.
# [18] = test system: peripheral α-adrenergic stimulation; experiment: signs of peripheral adrenergic stimulation; type: in vivo, mouse; rat; details: i.p.; dose not stated
# Method: as §1
# mice [19] = experiment: toxicity to grouped mice compared with isolated mice; type: in vivo, mouse
# [20] = water solubility of the product; type: physicochemical
# Method: The 39 g of 1-(4-acetylaminophenyl)-2-chloropropanone thus obtained are dissolved in 200 ml of isopropylamine. The resulting reaction medium is heated under reflux for 6 hours. The excess isopropylamine is evaporated off in vacuo. The evaporation residue, which is in the form of a viscous oil, is taken up with 200 ml of anhydrous ethanol and the hydrochloride is recipitated by means of a stream of HCl gas.
# mice [21] = experiment: interaction with barbital; type: in vivo, mouse; details: gastric route
# rats [22] = experiment: action on stereotypies in rats (α-methyltyrosine, haloperidol, reserpine)
# [23] = proadifen 75 mg/kg i.p. then CRL 41 152
structure (smiles),measurement,setting,value
"CC(=O)Nc1ccc(C(=O)C(C)NC(C)C)cc1 (centres unmarked) [CRL 41 152, 1-(4-acetylaminophenyl)-2-isopropylaminopropanone hydrochloride]",excitation in mice,mice [1],excitation with hyperreactivity in mice
same,stereotype movements in rats,rats [2],stereotype movements in rats; also recorded: induces stereotype movements
same,hypothermia induced by apomorphine,mice [3],antagonism of the hypothermia induced by apomorphine
same,stereotypies induced by apomorphine,rats [4],potentiation of the stereotypies induced by apomorphine
same,stereotypies induced by amphetamine,rats [5],potentiation of the stereotypies induced by apomorphine or amphetamine
same,hypothermia induced by reserpine,mice [6],"antagonism of the hypothermia induced by apomorphine, oxotremorine or reserpine"
same,ptosis induced by reserpine,mice [6],antagonism of the ptosis induced by reserpine
same,hypothermia induced by oxotremorine,mice [7],"antagonism of the hypothermia induced by apomorphine, oxotremorine"
same,trembling caused by oxotremorine,mice [7],antagonism of the trembling caused by oxotremorine
same,convulsant effects of electric shock,mice [8],anticonvulsant effects
same,spontaneous motility / motor activity,mice [9],an increase in the spontaneous motility in mice
same,motor activity after habituation to the enclosure,mice [10],a resumption in the motor activity of mice accustomed to their enclosure
same,motor recovery after hypoxic aggression,mice [11],an improvement in the motor recovery in mice after acute hypoxia
same,sleep induced by barbital,mice [12],antagonism of the sleep induced by barbital
same,"period of immobility or ""despair""",mice [13],a reduction in the immobility
same,"clinical result: depressions, hypersomnia and GELINEAU's disease",man,excellent drug for treating depressions in man as well as hypersomnia and GELINEAU's disease
same,effect of prior dopamine on the motor activity caused,male mice [14]; dopamine 10 μg I.V.C.,did not modify the motor activity caused by CRL 41 152
same,motor activity,"male mice [14]; i.p., 8 mg/kg, one-hour recording",distinct statistically significant increase in motor activity
same,effect of prior noradrenaline on the motor stimulant effect,male mice [14]; noradrenaline 10 μg I.V.C.,distinct statistically significant decrease in the motor stimulant effect
same,spontaneous motility,"male mice [15]; i.p., administered alone",increases the spontaneous motility in mice
same,effect of proadifen on the induced hypermotility,male mice [15]; [23],does not cause a distinct reduction of the hypermotility
same,hypothermia induced by apomorphine,"male mice [16]; i.p., 8 and especially 32 mg/kg, apomorphine 16 mg/kg s.c.",antagonism vis-a-vis the hypothermia induced by apomorphine
same,righting behaviour and stereotypies induced by apomorphine,"male mice [16]; i.p., apomorphine 16 mg/kg s.c.","Neither proadifen, nor CRL 41 152, nor their combination modify the righting behaviour"
same,effect of proadifen on antagonism vis-a-vis the hypothermic effect of apomorphine,male mice [16]; [23],does block the antagonism
same,teratogenic effect,[17],does not exhibit any harmful teratogenic effect
same,overall action on the CNS,CNS,stimulant effects; also recorded: antidepressant effects
same,exophthalmos,[18],absent
same,mydriasis,[18],mydriasis
same,"peripheral adrenergic stimulation, overall",[18],effects which may reflect peripheral adrenergic stimulation
same,salivation,[18],absent
same,toxicity to grouped mice compared with isolated mice,mice [19],do not increase the toxicity to grouped mice
same,water solubility,[20],very water-soluble
same,"interaction with barbital, kinetic study",mice [21],clearly showed the interest of CRL 41 152 as awakening agent
same,effect of haloperidol on induced stereotypies,rats [22]; haloperidol 0.25 mg/kg i.p. 0.5 h before,almost totally prevents the appearance of stereotypies
same,effect of haloperidol on induced stereotypies,rats [22]; haloperidol 0.5 mg/kg i.p. 0.5 h before,totally inhibits the said stereotypies
same,suppression of induced stereotype movements by prior injection of alpha-methyltyrosine,rats [22]; i.p.,not suppressed
same,effect of reserpine on induced stereotypies,rats [22]; reserpine 4 mg/kg i.p. 24 hours before,only a moderate reduction of the stereotypies
same,inhibition by α-methyltyrosine of the induced stereotypies,rats [22]; α-methyltyrosine 128 mg/kg i.p. 2.5 h before 30 mg/kg i.p. CRL 41 152,4%
